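Cultured in 96-well plates, cells were exposed to test compound for 48 hours across five concentrations. At the TGI there is no net growth.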
What was measured:
Experiment in all cases: inhibition of tumour cell growth, NCI panel, 48 h
786-0 renal = tested on: 786-0 renal
A549 NSCLC = tested on: A549 NSCLC
ACHN renal = tested on: ACHN renal
CCRF-CEM leukemia = tested on: CCRF-CEM leukemia
COLO 205 colon = tested on: COLO 205 colon
DLD-1 colon = tested on: DLD-1 colon
DMS 114 small cell lung = tested on: DMS 114 small cell lung
EKVX NSCLC = tested on: EKVX NSCLC
HCC-2998 colon = tested on: HCC-2998 colon
HCT-15 colon = tested on: HCT-15 colon
HL-60(TB) leukemia = tested on: HL-60(TB) leukemia
HOP-92 NSCLC = tested on: HOP-92 NSCLC
HT29 colon = tested on: HT29 colon
IGROV1 ovarian = tested on: IGROV1 ovarian
K-562 leukemia = tested on: K-562 leukemia
KM12 colon = tested on: KM12 colon
M14 melanoma = tested on: M14 melanoma
M19-MEL melanoma = tested on: M19-MEL melanoma
MALME-3M melanoma = tested on: MALME-3M melanoma
MOLT-4 leukemia = tested on: MOLT-4 leukemia
NCI-H226 lung = tested on: NCI-H226 lung
NCI-H23 lung = tested on: NCI-H23 lung
NCI-H460 lung = tested on: NCI-H460 lung
OVCAR-3 ovarian = tested on: OVCAR-3 ovarian
OVCAR-5 ovarian = tested on: OVCAR-5 ovarian
OVCAR-8 ovarian = tested on: OVCAR-8 ovarian
RPMI-8226 leukemia = tested on: RPMI-8226 leukemia
RXF 393 renal = tested on: RXF 393 renal
SF-268 CNS = tested on: SF-268 CNS
SF-295 CNS = tested on: SF-295 CNS
SF-539 CNS = tested on: SF-539 CNS
SK-MEL-2 melanoma = tested on: SK-MEL-2 melanoma
SK-MEL-28 melanoma = tested on: SK-MEL-28 melanoma
SK-MEL-5 melanoma = tested on: SK-MEL-5 melanoma
SK-OV-3 ovarian = tested on: SK-OV-3 ovarian
SN12C renal = tested on: SN12C renal
SNB-19 CNS = tested on: SNB-19 CNS
SR leukemia = tested on: SR leukemia
SW-620 colon = tested on: SW-620 colon
TK-10 renal = tested on: TK-10 renal
U251 CNS = tested on: U251 CNS
UACC-257 melanoma = tested on: UACC-257 melanoma
UO-31 renal = tested on: UO-31 renal
XF 498 CNS = tested on: XF 498 CNS
CAKI-1 renal = tested on: CAKI-1 renal
DMS 273 small cell lung = tested on: DMS 273 small cell lung
HCT-116 colon = tested on: HCT-116 colon
HOP-62 NSCLC = tested on: HOP-62 NSCLC
KM20L2 colon = tested on: KM20L2 colon
LOX IMVI melanoma = tested on: LOX IMVI melanoma
NCI-H522 lung = tested on: NCI-H522 lung
OVCAR-4 ovarian = tested on: OVCAR-4 ovarian
SNB-75 CNS = tested on: SNB-75 CNS
SNB-78 CNS = tested on: SNB-78 CNS
UACC-62 melanoma = tested on: UACC-62 melanoma
A498 renal = tested on: A498 renal
LXFL 529 NSCLC = tested on: LXFL 529 NSCLC

SMILES: CCOC(=O)C(Cc1c(C=O)[nH]c2ccccc12)(NC(=O)c1ccccc1)C(=O)OCC
- TGI (786-0 renal): 34.7 µM
- TGI (A549 NSCLC): 42.2 µM
- TGI (ACHN renal): 39.3 µM
- TGI (CCRF-CEM leukemia): 39 µM
- TGI (COLO 205 colon): 34.7 µM
- TGI (DLD-1 colon): 25 µM
- TGI (DMS 114 small cell lung): 39 µM
- TGI (EKVX NSCLC): 42.7 µM
- TGI (HCC-2998 colon): 24.6 µM
- TGI (HCT-15 colon): 29.8 µM
- TGI (HL-60(TB) leukemia): > 100 µM
- TGI (HOP-92 NSCLC): 31.3 µM
- TGI (HT29 colon): 37.2 µM
- TGI (IGROV1 ovarian): 43.7 µM
- TGI (K-562 leukemia): 45.2 µM
- TGI (KM12 colon): 26.9 µM
- TGI (M14 melanoma): 33.7 µM
- TGI (M19-MEL melanoma): 31.8 µM
- TGI (MALME-3M melanoma): 33.9 µM
- TGI (MOLT-4 leukemia): 37.1 µM
- TGI (NCI-H226 lung): 45.9 µM
- TGI (NCI-H23 lung): 37.1 µM
- TGI (NCI-H460 lung): 59.7 µM
- TGI (OVCAR-3 ovarian): 40.3 µM
- TGI (OVCAR-5 ovarian): 35.3 µM
- TGI (OVCAR-8 ovarian): 65.7 µM
- TGI (RPMI-8226 leukemia): > 100 µM
- TGI (RXF 393 renal): 26 µM
- TGI (SF-268 CNS): 39.5 µM
- TGI (SF-295 CNS): 33 µM
- TGI (SF-539 CNS): 30.3 µM
- TGI (SK-MEL-2 melanoma): 32.4 µM
- TGI (SK-MEL-28 melanoma): 34.2 µM
- TGI (SK-MEL-5 melanoma): 24.5 µM
- TGI (SK-OV-3 ovarian): 79.8 µM
- TGI (SN12C renal): 26.6 µM
- TGI (SNB-19 CNS): 18.4 µM
- TGI (SR leukemia): > 100 µM
- TGI (SW-620 colon): 32.1 µM
- TGI (TK-10 renal): 69.9 µM
- TGI (U251 CNS): 25.5 µM
- TGI (UACC-257 melanoma): 39.2 µM
- TGI (UO-31 renal): 62.4 µM
- TGI (XF 498 CNS): 32.1 µM

SMILES: CCCCN(CCCC)CC(C(=O)Nc1ccccc1)/C(C)=N\NC(=O)c1ccncc1 (stereo not drawn)
- TGI (786-0 renal): > 100 µM
- TGI (A549 NSCLC): > 100 µM
- TGI (ACHN renal): > 100 µM
- TGI (CAKI-1 renal): > 100 µM
- TGI (COLO 205 colon): > 100 µM
- TGI (DLD-1 colon): > 100 µM
- TGI (DMS 114 small cell lung): > 100 µM
- TGI (DMS 273 small cell lung): > 100 µM
- TGI (HCC-2998 colon): > 100 µM
- TGI (HCT-116 colon): > 100 µM
- TGI (HCT-15 colon): > 100 µM
- TGI (HL-60(TB) leukemia): > 100 µM
- TGI (HOP-62 NSCLC): > 100 µM
- TGI (HOP-92 NSCLC): > 100 µM
- TGI (HT29 colon): > 100 µM
- TGI (IGROV1 ovarian): > 100 µM
- TGI (K-562 leukemia): > 100 µM
- TGI (KM12 colon): > 100 µM
- TGI (KM20L2 colon): > 100 µM
- TGI (LOX IMVI melanoma): > 100 µM
- TGI (M14 melanoma): > 100 µM
- TGI (M19-MEL melanoma): > 100 µM
- TGI (MALME-3M melanoma): > 100 µM
- TGI (MOLT-4 leukemia): > 100 µM
- TGI (NCI-H226 lung): > 100 µM
- TGI (NCI-H23 lung): > 100 µM
- TGI (NCI-H460 lung): > 100 µM
- TGI (NCI-H522 lung): > 100 µM
- TGI (OVCAR-3 ovarian): > 100 µM
- TGI (OVCAR-4 ovarian): > 100 µM
- TGI (OVCAR-5 ovarian): > 100 µM
- TGI (OVCAR-8 ovarian): > 100 µM
- TGI (RPMI-8226 leukemia): > 100 µM
- TGI (RXF 393 renal): > 100 µM
- TGI (SF-268 CNS): > 100 µM
- TGI (SF-295 CNS): > 100 µM
- TGI (SF-539 CNS): > 100 µM
- TGI (SK-MEL-28 melanoma): > 100 µM
- TGI (SK-MEL-5 melanoma): > 100 µM
- TGI (SK-OV-3 ovarian): > 100 µM
- TGI (SN12C renal): > 100 µM
- TGI (SNB-19 CNS): > 100 µM
- TGI (SNB-75 CNS): > 100 µM
- TGI (SNB-78 CNS): > 100 µM
- TGI (SR leukemia): > 100 µM
- TGI (SW-620 colon): > 100 µM
- TGI (TK-10 renal): > 100 µM
- TGI (U251 CNS): > 100 µM
- TGI (UACC-257 melanoma): > 100 µM
- TGI (UACC-62 melanoma): > 100 µM
- TGI (UO-31 renal): > 100 µM
- TGI (XF 498 CNS): > 100 µM

SMILES: COc1c(Cl)cc(Cl)cc1S(=O)O
- TGI (A498 renal): > 100 µM
- TGI (ACHN renal): > 100 µM
- TGI (CCRF-CEM leukemia): > 100 µM
- TGI (DLD-1 colon): > 100 µM
- TGI (DMS 114 small cell lung): > 100 µM
- TGI (EKVX NSCLC): > 100 µM
- TGI (HCC-2998 colon): > 100 µM
- TGI (HCT-116 colon): > 100 µM
- TGI (HL-60(TB) leukemia): > 100 µM
- TGI (HOP-62 NSCLC): > 100 µM
- TGI (HT29 colon): > 100 µM
- TGI (K-562 leukemia): > 100 µM
- TGI (KM12 colon): > 100 µM
- TGI (LOX IMVI melanoma): > 100 µM
- TGI (LXFL 529 NSCLC): > 100 µM
- TGI (M14 melanoma): > 100 µM
- TGI (M19-MEL melanoma): > 100 µM
- TGI (MALME-3M melanoma): > 100 µM
- TGI (MOLT-4 leukemia): > 100 µM
- TGI (NCI-H23 lung): > 100 µM
- TGI (NCI-H460 lung): > 100 µM
- TGI (NCI-H522 lung): > 100 µM
- TGI (OVCAR-3 ovarian): > 100 µM
- TGI (OVCAR-4 ovarian): > 100 µM
- TGI (OVCAR-5 ovarian): > 100 µM
- TGI (RXF 393 renal): > 100 µM
- TGI (SF-268 CNS): > 100 µM
- TGI (SF-539 CNS): > 100 µM
- TGI (SK-MEL-2 melanoma): > 100 µM
- TGI (SK-MEL-28 melanoma): > 100 µM
- TGI (SK-OV-3 ovarian): > 100 µM
- TGI (SN12C renal): > 100 µM
- TGI (SNB-19 CNS): > 100 µM
- TGI (SNB-75 CNS): > 100 µM
- TGI (SNB-78 CNS): > 100 µM
- TGI (SR leukemia): > 100 µM
- TGI (TK-10 renal): > 100 µM
- TGI (U251 CNS): > 100 µM
- TGI (UACC-257 melanoma): > 100 µM
- TGI (UACC-62 melanoma): > 100 µM
- TGI (UO-31 renal): > 100 µM
- TGI (XF 498 CNS): > 100 µM

SMILES: Nc1cc(C(=O)NC2C3CC4CC(C3)CC2C4)[nH]c(=S)n1 (stereo not drawn)
- TGI (786-0 renal): > 100 µM
- TGI (A498 renal): > 100 µM
- TGI (A549 NSCLC): > 100 µM
- TGI (CAKI-1 renal): > 100 µM
- TGI (CCRF-CEM leukemia): > 100 µM
- TGI (DLD-1 colon): > 100 µM
- TGI (EKVX NSCLC): > 100 µM
- TGI (HCC-2998 colon): > 100 µM
- TGI (HCT-116 colon): > 100 µM
- TGI (HCT-15 colon): > 100 µM
- TGI (HL-60(TB) leukemia): > 100 µM
- TGI (HOP-62 NSCLC): > 100 µM
- TGI (HOP-92 NSCLC): > 100 µM
- TGI (HT29 colon): > 100 µM
- TGI (IGROV1 ovarian): > 100 µM
- TGI (K-562 leukemia): > 100 µM
- TGI (KM20L2 colon): > 100 µM
- TGI (LXFL 529 NSCLC): > 100 µM
- TGI (M14 melanoma): > 100 µM
- TGI (M19-MEL melanoma): > 100 µM
- TGI (MALME-3M melanoma): > 100 µM
- TGI (MOLT-4 leukemia): > 100 µM
- TGI (NCI-H226 lung): > 100 µM
- TGI (NCI-H23 lung): > 100 µM
- TGI (NCI-H460 lung): > 100 µM
- TGI (NCI-H522 lung): > 100 µM
- TGI (OVCAR-3 ovarian): > 100 µM
- TGI (OVCAR-4 ovarian): > 100 µM
- TGI (OVCAR-8 ovarian): > 100 µM
- TGI (RXF 393 renal): > 100 µM
- TGI (SF-268 CNS): > 100 µM
- TGI (SF-539 CNS): > 100 µM
- TGI (SK-MEL-28 melanoma): > 100 µM
- TGI (SK-MEL-5 melanoma): > 100 µM
- TGI (SK-OV-3 ovarian): > 100 µM
- TGI (SN12C renal): > 100 µM
- TGI (SNB-19 CNS): > 100 µM
- TGI (SNB-75 CNS): > 100 µM
- TGI (SNB-78 CNS): > 100 µM
- TGI (SR leukemia): > 100 µM
- TGI (SW-620 colon): > 100 µM
- TGI (U251 CNS): > 100 µM
- TGI (UACC-257 melanoma): > 100 µM
- TGI (UO-31 renal): > 100 µM
- TGI (XF 498 CNS): > 100 µM
